Test results from patent US9850205B2, “Stable apremilast crystalline form II free of solvate and method of making the same” (UTOPHARM (SHANGHAI) CO., LTD, priority 2015, dated 2017).

Legend:
[1] = Influence factors (stability) experiments of Form I, Form II and Form B; format: physicochemical
Excerpt: 2. Influence factors experiments of Form I, Form II and Form B:
In addition, the same batch of raw materials was crystallized in acetone/ethyl alcohol to produce Form B and crystallized in acetone/water to produce Form I and Form II, then compare the appearance and color of the products.

[2] = Thermostability experiments: forms suspended in water and stirred at 60 and 100° C.; format: physicochemical; conditions: for increased amount of related substance, N-deacetylates: stirred in water at 100° C. for 48 h; for electrostatic effect: suspended in water at 100° C., stirred 24 h, filtered and dried; for DSC / X-ray powder diffraction (change) / melting temperature (change) / X-ray powder diffraction pattern (change): suspended in water; for melting temperature (change): numbers are decreases
Procedure: Apremilast Crystalline Form II and Form B were suspended in water and stirred for 24-48 h under 60 and 100° C., respectively, then cooled, filtered, and dried, and X-ray powder diffraction patterns, DSC patterns, melting temperature and related substance were determined (see Table 4).
Apremilast Crystalline Form II and Form B were suspended in water, respectively, stirred at 60-100° C. for 48 h sampled at a certain time interval and filtered, dried to determine the change of melting temperature; sampled at 24 h, 48 h, filtered and dried to determine change of XRPD patterns, DSC patterns, melting temperature, electrostatic effects, and related substances.

[3] = Electrostatic effect under the same micronization condition; format: physicochemical
Excerpt: Large electrostatic effect will adversely affect the preparation processing.

[4] = Solubility of Form II and Form B in common solvents; format: physicochemical; conditions: acetone, butanone, ethyl alcohol, methanol, ethyl acetate, acetonitrile, dichloromethane, tetrahydrofuran, petroleum ether, n-hexane, water
Procedure: The solubility of Form II and Form B in common solvents such as acetone, butanone, ethyl alcohol, methanol, ethyl acetate, acetonitrile, dichloromethane, tetrahydrofuran, petroleum ether, n-hexane, water was tested and compared.

[5] = In vivo pharmacokinetic comparison study in SD rats (gavage, LC-MS/MS plasma concentration); conditions: for AUC(0-t) / Cmax / Tmax: SD (Sprague-Dawley), rat, plasma, po, gavage 10 mg/kg suspension; for AUC(0-t): read-out: area under the curve AUC0-t; for Cmax: read-out: peak concentrations Cmax; for Tmax: 10 mg/kg
Procedure: Twelve SD rats weight 200-220 g with half males and half females were divided randomly into 2 groups (named as group A and group B).
According to the administration route and dosage amounts provided in FDA references, the two crystalline forms were given by gavage to investigate their pharmacokinetic behaviors in rats. The dosage amounts of the two forms are both 10 mg/kg (solvent is 1% carboxymethylcellulose). The rats were fasted for 12 hs before the study, food was provided 4 hs after administration, water deprivation was not required during the whole study. • Blood was collected via the fundus venous plexus 10, 30mins, 1, 2, 4, 6, 8, 10, 12 and 24 hs after administration. The collected blood was placed on ice and centrifuged for 5min at 8000 rpm, plasma was separated, and cryoperserved in a −20° C. refrigerator. LC-MS/MS was used to determine the concentration of APST in plasma. Linearity range of APST in plasma is 2-1000ng/ml, the linearity was good.

[6] = Comparison of pharmacokinetics in Beagle dogs (oral capsule of crude drug powder, LC-MS/MS plasma concentration); format: in vivo; conditions: both sexes, dog, 30 mg crude drug powder capsule, single period
Procedure: 6 healthy Beagle dogs weight 6-8 kg with half males and half females were divided randomly into 2 groups, each group having 3.
According to the administration route and dosage amounts, medicine is administrated orally and the dosage is 30 mg/dog/time. After crude drug powder of two crystal forms being weighed about 30 mg respectively, capsule shell is used to be filled and 10 ml water is used accompanied with administration. The Beagle dogs were fasted for 12 hours before the study, and food is provided in 4 hours after administration. Water deprivation was not required during the whole study. Specific administration groups are designed in the table as below.
0.5ml venous blood was collected via the small saphenous veins 10, 30 min, 1, 2, 4, 6, 8, 10, 12, 24, 48 and 72 h before (0 hour) or after administration. After centrifugation for 5 minutes at 8000 rpm, blood plasma is separated out and placed in anti freezing plastic test tube for storing in refrigerator at −20 C temporarily.
Concentration of APST in blood plasma is tested by LC-MS/MS method. The linearity range of APST testing is 5 to 5000 ng/ml, and the linear is good.

[7] = Crystalline form conversion study, suspension in acetone/water at reflux; format: physicochemical; conditions: suspended in acetone/water (1:3), refluxing temperature; Form B 36 h, Form D 8-10 h
Procedure: In addition, pure Form II can obtained by suspending crashed Forms A, B, C, D, E, F and/or G in acetone/water and stirring at 50° C. to refluxing temperature for 1-48 h.
Apremilast Crystalline Form B (5.0 g, particle size less than 300 mesh) was suspended in 60 ml acetone/water (1:3), heated to refluxing temperature and stirred for 36 h, then cooled while stirring, filtered, dried at 60° C. to obtain about 4.88 g of Apremilast Crystalline Form II, mp:148.3-150.3° C.
Apremilast Crystalline Form D (5.0 g, particle size less than 200mesh) was suspended in 60m1 acetone/water (1:3), heated to refluxing temperature and stirred for 8-10 h, then cooled while stirring, filtered, dried at 60° C. to obtain about 4.60 g of Apremilast Crystalline Form II, mp:148.3-150.5° C.

[8] = both sexes, SD rats, males and females together, read-out: time to peak Tmax
[9] = both sexes, SD rats, males and females together, read-out: time to peak Tmax (median)
[10] = both sexes, SD rats, males and females together
[11] = female, female rats, read-out: time to peak Tmax
[12] = female, female rats, read-out: time to peak Tmax (median)
[13] = male, male rats, read-out: time to peak Tmax
[14] = male, male rats, read-out: time to peak Tmax (median)

stability under high temperature and high humidity conditions [1]	Change of related substance/high temperature for 10 days [1]	moisture absorption/humidity 92.5% Change of related substances [1]	moisture absorption/humidity 92.5% weight gain [1] [%]	Change of related substances/light exposure for 10 days [1]	increased amount of related substance, N-deacetylates [2] [%]	electrostatic effect [2]	DSC ([2]; 60° C., 48 h) [°C]	X-ray powder diffraction (change) ([2]; 60° C., 48 h)	melting temperature (change) ([2]; 60° C., 48 h)	X-ray powder diffraction pattern (change) ([2]; 100° C., 24~48 h)	melting temperature (change) ([2]; 100° C., 24~48 h)	electrostatic effect [3]	solubility, Form II compared with Form B [4]	AUC(0-t) ([5]; female rats) [ng·h/mL]	Cmax ([5]; female rats) [ng/mL]	AUC(0-t) ([5]; male rats) [ng·h/mL]	Cmax ([5]; male rats) [ng/mL]	Tmax [5, 8] [h]	Tmax [5, 9] [h]	Structure (SMILES)	also measured
stable	Essentially no	essentially no	<1.0	essentially no	0.046	essentially no electrostatic effect	150	essentially no	essentially no	essentially no	essentially no	weak or no electrostatic effect	essentially no difference	10600 ± 1050	906 ± 179	446 ± 81.2	108 ± 16.1	1 to 6	3	CCOc1cc(C(CS(C)(=O)=O)N2C(=O)c3cccc(NC(C)=O)c3C2=O)ccc1OC (single isomer, unassigned; (+)) [Form II, (+)-2-[1-(3-ethoxy-4-methoxyphenyl)-2-methylsulfonylethyl]-4-acetylaminoisoindoline-1,3-dione]	DSC ([2]; 100° C., 24~48 h): 150 °C; AUC(0-t) [5, 10]: 5530 ± 5610 ng·h/mL; Cmax [5, 10]: 507 ± 452 ng/mL; exposure of Form II relative to the exposure of Form B ([5]; female SD rats): 1.5 times; Tmax [5, 11]: 4 to 6 h; Tmax [5, 12]: 6 h; Tmax [5, 13]: 1 to 2 h; Tmax [5, 14]: 1 h; AUC(0-inf) [6]: 38200 ± 13000 ng·h/mL; AUC(0-t) [6]: 37700 ± 22400 ng·h/mL; Cmax [6]: 2050 ± 357 ng/mL; Tmax [6]: 9 ± 13 h
stable			<1.0		0.059	serious electrostatic effect	157	weak	Decreased 2-3 °C	Weak absorption	Decreased 3-4 °C	higher electrostatic effect	essentially no difference	7000 ± 1140	904 ± 28.5	530 ± 70	142 ± 14	1.6	2.5	CCOc1cc([C@@H](CS(C)(=O)=O)N2C(=O)c3cccc(NC(C)=O)c3C2=O)ccc1OC [Form B, (+)-2-[1-(3-ethoxy-4-methoxyphenyl)-2-methylsulfonylethyl]-4-acetylaminoisoindoline-1,3-dione]	conversion of crystalline form (XRPD pattern and DSC pattern) [7]: complete conversion to Form II; exposure of APST-B as percentage of the exposure of APST-II ([5]; SD rats, males and females together, gavage 10 mg/kg): about 68.07%; AUC(0-t) [5, 10]: 3770 ± 3620 ng·h/mL; Cmax [5, 10]: 523 ± 417 ng/mL; AUC0-t of APST-B as percentage of that of APST-II ([5]; female rats, gavage 10 mg/kg): 65.9%; Tmax [5, 11]: 2 to 6 h; Tmax [5, 12]: 4 h; AUC0-t of APST-B as percentage of that of APST-II ([5]; male rats, gavage 10 mg/kg): ~119.0%; Cmax of APST-B as percentage of that of APST-II ([5]; male rats, gavage 10 mg/kg): about 132.3%; Tmax [5, 13]: 1 h; Tmax [5, 14]: 1 h; AUC(0-inf) [6]: 38500 ± 20500 ng·h/mL; AUC(0-t) [6]: 38000 ± 20500 ng·h/mL; Cmax [6]: 2410 ± 377 ng/mL; Tmax [6]: 1.7 ± 0.6 h
stable	Essentially no	essentially no		essentially no																CCOc1cc([C@@H](CS(C)(=O)=O)N2C(=O)c3cccc(NC(C)=O)c3C2=O)ccc1OC [Form I, (+)-2-[1-(3-ethoxy-4-methoxyphenyl)-2-methylsulfonylethyl]-4-acetylaminoisoindoline-1,3-dione]	
